Test results as given in PubChem BioAssay (NCI).
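Where inhibition never reached the appropriate level, the endpoint shown equals the highest concentration tested. Otherwise, values were interpolated linearly from a five-concentration, 48-hour dose response in 96-well plates. GI50 = concentration required for 50% inhibition of growth. TGI: concentration producing complete growth inhibition.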

Experiments:
Assay in all cases: DTP human tumour cell line panel, 48 h
786-0 renal = system: 786-0 renal
A498 renal = system: A498 renal
A549 NSCLC = system: A549 NSCLC
ACHN renal = system: ACHN renal
BT-549 breast = system: BT-549 breast
CAKI-1 renal = system: CAKI-1 renal
CCRF-CEM leukemia = system: CCRF-CEM leukemia
COLO 205 colon = system: COLO 205 colon
DU-145 prostate = system: DU-145 prostate
EKVX NSCLC = system: EKVX NSCLC
HCC-2998 colon = system: HCC-2998 colon
HCT-116 colon = system: HCT-116 colon
HCT-15 colon = system: HCT-15 colon
HL-60(TB) leukemia = system: HL-60(TB) leukemia
HOP-62 NSCLC = system: HOP-62 NSCLC
HOP-92 NSCLC = system: HOP-92 NSCLC
HS 578T breast = system: HS 578T breast
HT29 colon = system: HT29 colon
IGROV1 ovarian = system: IGROV1 ovarian
K-562 leukemia = system: K-562 leukemia
KM12 colon = system: KM12 colon
M14 melanoma = system: M14 melanoma
MALME-3M melanoma = system: MALME-3M melanoma
MCF7 breast = system: MCF7 breast
MDA-MB-231 breast = system: MDA-MB-231 breast
MOLT-4 leukemia = system: MOLT-4 leukemia
NCI-H226 lung = system: NCI-H226 lung
NCI-H23 lung = system: NCI-H23 lung
NCI-H460 lung = system: NCI-H460 lung
NCI-H522 lung = system: NCI-H522 lung
NCI/ADR-RES ovarian = system: NCI/ADR-RES ovarian
OVCAR-3 ovarian = system: OVCAR-3 ovarian
OVCAR-4 ovarian = system: OVCAR-4 ovarian
OVCAR-5 ovarian = system: OVCAR-5 ovarian
OVCAR-8 ovarian = system: OVCAR-8 ovarian
PC-3 prostate = system: PC-3 prostate
RPMI-8226 leukemia = system: RPMI-8226 leukemia
RXF 393 renal = system: RXF 393 renal
SF-268 CNS = system: SF-268 CNS
SF-295 CNS = system: SF-295 CNS
SF-539 CNS = system: SF-539 CNS
SK-MEL-2 melanoma = system: SK-MEL-2 melanoma
SK-MEL-28 melanoma = system: SK-MEL-28 melanoma
SK-MEL-5 melanoma = system: SK-MEL-5 melanoma
SK-OV-3 ovarian = system: SK-OV-3 ovarian
SN12C renal = system: SN12C renal
SNB-19 CNS = system: SNB-19 CNS
SNB-75 CNS = system: SNB-75 CNS
SR leukemia = system: SR leukemia
SW-620 colon = system: SW-620 colon
T-47D breast = system: T-47D breast
TK-10 renal = system: TK-10 renal
U251 CNS = system: U251 CNS
UACC-257 melanoma = system: UACC-257 melanoma
UACC-62 melanoma = system: UACC-62 melanoma
UO-31 renal = system: UO-31 renal

COc1cc(/C=C2\CN(S(=O)(=O)c3ccc(C)cc3)C/C(=C\c3cc(CN4CCOCC4)c(O)c(OC)c3)C2=O)cc(CN2CCOCC2)c1O
GI50 (786-0 renal): 17.9 µM
TGI (786-0 renal): 59.4 µM
GI50 (A498 renal): 12.4 µM
TGI (A498 renal): 54.4 µM
GI50 (A549 NSCLC): 13 µM
TGI (A549 NSCLC): > 100 µM
GI50 (ACHN renal): 1.47 µM
TGI (ACHN renal): 22.5 µM
GI50 (BT-549 breast): 17.6 µM
TGI (BT-549 breast): 67.2 µM
GI50 (CAKI-1 renal): 1.53 µM
TGI (CAKI-1 renal): > 100 µM
GI50 (CCRF-CEM leukemia): 0.513 µM
TGI (CCRF-CEM leukemia): > 100 µM
GI50 (COLO 205 colon): 1.66 µM
TGI (COLO 205 colon): > 100 µM
GI50 (DU-145 prostate): 0.928 µM
TGI (DU-145 prostate): > 100 µM
GI50 (EKVX NSCLC): 16.9 µM
TGI (EKVX NSCLC): 92.5 µM
GI50 (HCC-2998 colon): 2.05 µM
TGI (HCC-2998 colon): 21.7 µM
GI50 (HCT-116 colon): 3.25 µM
TGI (HCT-116 colon): > 100 µM
GI50 (HCT-15 colon): 1.9 µM
TGI (HCT-15 colon): > 100 µM
GI50 (HL-60(TB) leukemia): 0.853 µM
TGI (HL-60(TB) leukemia): 27.4 µM
GI50 (HOP-62 NSCLC): 0.652 µM
TGI (HOP-62 NSCLC): 38 µM
GI50 (HOP-92 NSCLC): 17.6 µM
TGI (HOP-92 NSCLC): 71.8 µM
GI50 (HS 578T breast): 0.721 µM
TGI (HS 578T breast): 19.8 µM
GI50 (HT29 colon): 0.346 µM
TGI (HT29 colon): > 100 µM
GI50 (IGROV1 ovarian): 1.09 µM
TGI (IGROV1 ovarian): 22.8 µM
GI50 (K-562 leukemia): 0.561 µM
TGI (K-562 leukemia): > 100 µM
GI50 (KM12 colon): 0.377 µM
TGI (KM12 colon): 25.5 µM
GI50 (M14 melanoma): 0.689 µM
TGI (M14 melanoma): > 100 µM
GI50 (MALME-3M melanoma): 1.75 µM
TGI (MALME-3M melanoma): 65.8 µM
GI50 (MCF7 breast): 0.394 µM
TGI (MCF7 breast): > 100 µM
GI50 (MDA-MB-231 breast): 2.27 µM
TGI (MDA-MB-231 breast): 92.5 µM
GI50 (MOLT-4 leukemia): 0.321 µM
TGI (MOLT-4 leukemia): > 100 µM
GI50 (NCI-H226 lung): 12.7 µM
TGI (NCI-H226 lung): 85.8 µM
GI50 (NCI-H23 lung): 3.31 µM
TGI (NCI-H23 lung): > 100 µM
GI50 (NCI-H460 lung): 0.337 µM
TGI (NCI-H460 lung): 2.52 µM
GI50 (NCI-H522 lung): 2.34 µM
TGI (NCI-H522 lung): 32.6 µM
GI50 (NCI/ADR-RES ovarian): 55 µM
TGI (NCI/ADR-RES ovarian): > 100 µM
GI50 (OVCAR-3 ovarian): 0.611 µM
TGI (OVCAR-3 ovarian): > 100 µM
GI50 (OVCAR-4 ovarian): 4.11 µM
TGI (OVCAR-4 ovarian): > 100 µM
GI50 (OVCAR-5 ovarian): > 100 µM
TGI (OVCAR-5 ovarian): > 100 µM
GI50 (OVCAR-8 ovarian): 0.323 µM
TGI (OVCAR-8 ovarian): > 100 µM
GI50 (PC-3 prostate): 1.24 µM
TGI (PC-3 prostate): > 100 µM
GI50 (RPMI-8226 leukemia): 2.34 µM
TGI (RPMI-8226 leukemia): > 100 µM
GI50 (RXF 393 renal): 2.81 µM
TGI (RXF 393 renal): 29.5 µM
GI50 (SF-268 CNS): 0.935 µM
TGI (SF-268 CNS): 81.2 µM
GI50 (SF-295 CNS): 12.5 µM
TGI (SF-295 CNS): 40.2 µM
GI50 (SF-539 CNS): 7.21 µM
TGI (SF-539 CNS): 33 µM
GI50 (SK-MEL-2 melanoma): 21.9 µM
TGI (SK-MEL-2 melanoma): 65.1 µM
GI50 (SK-MEL-28 melanoma): 4.85 µM
TGI (SK-MEL-28 melanoma): > 100 µM
GI50 (SK-MEL-5 melanoma): 4.15 µM
TGI (SK-MEL-5 melanoma): > 100 µM
GI50 (SK-OV-3 ovarian): 7.89 µM
TGI (SK-OV-3 ovarian): 56.5 µM
GI50 (SN12C renal): 0.524 µM
TGI (SN12C renal): 15.5 µM
GI50 (SNB-19 CNS): 15.8 µM
TGI (SNB-19 CNS): > 100 µM
GI50 (SNB-75 CNS): 0.527 µM
TGI (SNB-75 CNS): 19.1 µM
GI50 (SR leukemia): 0.342 µM
TGI (SR leukemia): > 100 µM
GI50 (SW-620 colon): 1.35 µM
TGI (SW-620 colon): > 100 µM
GI50 (T-47D breast): 51.7 µM
TGI (T-47D breast): > 100 µM
GI50 (TK-10 renal): 15.4 µM
TGI (TK-10 renal): 59.8 µM
GI50 (U251 CNS): 0.782 µM
TGI (U251 CNS): > 100 µM
GI50 (UACC-257 melanoma): 2.06 µM
TGI (UACC-257 melanoma): > 100 µM
GI50 (UACC-62 melanoma): 0.586 µM
TGI (UACC-62 melanoma): 16.4 µM
GI50 (UO-31 renal): 20.4 µM
TGI (UO-31 renal): > 100 µM
